Source: PMC4821188 (Biological chemistry, 2010)
Several values for one entry are separate records, joined by “and”; a condition that tells them apart may be missing. Identical values can stand only once. *: point of attachment. EDDnp = O=[N+]([O-])c1ccc(NCCN*)c([N+](=O)[O-])c1; AMC = Cc1cc(=O)oc2cc(N*)ccc12

Experiments:
[1] = target: T1, Recombinant human furin (Homo sapiens, UniProt P09958); assay type: biochemical; conditions: 4 μM substrate; 10 mM MES, 1 mM CaCl2, 0.01% Triton X-100, pH 7.0, 36.5 °C
[2] = target: T1, Recombinant human furin; assay type: biochemical; conditions: for Km / kcat / kcat/Km / hydrolysis by furin (result in words, cell spans kcat, Km, kcat/Km and R): pH 7
[3] = target: T2, Kex2 (Saccharomyces cerevisiae, UniProt P13134); assay type: biochemical, S. cerevisiae; conditions: in the absence of Mg^2+
T2 sequence (P13134 114-613 limits assumed): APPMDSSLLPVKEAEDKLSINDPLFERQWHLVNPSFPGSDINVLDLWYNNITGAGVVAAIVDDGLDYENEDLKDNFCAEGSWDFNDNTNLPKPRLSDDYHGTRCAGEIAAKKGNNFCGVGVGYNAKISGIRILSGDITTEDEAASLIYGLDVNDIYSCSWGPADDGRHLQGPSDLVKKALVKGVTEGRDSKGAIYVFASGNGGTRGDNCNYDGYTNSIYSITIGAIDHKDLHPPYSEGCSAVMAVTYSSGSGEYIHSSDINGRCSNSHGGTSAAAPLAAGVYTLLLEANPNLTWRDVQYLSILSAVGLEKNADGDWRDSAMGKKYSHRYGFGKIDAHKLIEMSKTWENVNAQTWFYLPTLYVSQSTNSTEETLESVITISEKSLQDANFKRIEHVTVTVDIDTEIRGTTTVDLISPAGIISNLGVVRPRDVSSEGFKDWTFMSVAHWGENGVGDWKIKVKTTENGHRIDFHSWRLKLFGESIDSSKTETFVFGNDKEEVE

[4] = target: T1, Recombinant human furin; assay type: biochemical

T1 sequence (P09958 108-715 limits assumed): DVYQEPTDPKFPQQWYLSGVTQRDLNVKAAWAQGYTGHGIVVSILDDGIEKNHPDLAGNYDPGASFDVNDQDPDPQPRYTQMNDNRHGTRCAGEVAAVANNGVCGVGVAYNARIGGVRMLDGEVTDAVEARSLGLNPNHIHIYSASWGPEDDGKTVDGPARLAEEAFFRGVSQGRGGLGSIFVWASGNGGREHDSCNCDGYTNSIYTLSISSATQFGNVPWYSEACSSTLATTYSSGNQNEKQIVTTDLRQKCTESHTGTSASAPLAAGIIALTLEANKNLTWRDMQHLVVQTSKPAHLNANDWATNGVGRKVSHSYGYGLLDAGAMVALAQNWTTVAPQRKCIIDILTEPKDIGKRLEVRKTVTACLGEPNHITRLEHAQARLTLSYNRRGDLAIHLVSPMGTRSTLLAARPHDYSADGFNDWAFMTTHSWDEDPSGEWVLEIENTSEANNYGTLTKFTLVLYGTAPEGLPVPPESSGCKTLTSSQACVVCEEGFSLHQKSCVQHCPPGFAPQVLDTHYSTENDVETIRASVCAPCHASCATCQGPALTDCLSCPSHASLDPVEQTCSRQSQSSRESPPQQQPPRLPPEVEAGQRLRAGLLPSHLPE

Compound	effect on the rate of hydrolysis of Abz-[…]-Q-EDDnp by furin [1]	R: relative kcat/Km values in presence vs. absence of MgCl2 [2]	Km [2]	kcat [2]	kcat/Km [2]	kcat/Km for hydrolysis by kex2 [3] [M⁻¹ s⁻¹]	pK1 of pH-profile of furin hydrolysis [4]	hydrolysis by furin (result in words, cell spans kcat, Km, kcat/Km and R) [2]
[Cl-].[K+] [KCl]	increased the rate of hydrolysis							
[Cl-].[Cl-].[Mg+2] [Mg^2+, magnesium chloride]	significant increase							
[Cl-].[Na+] [NaCl]	no effect							
Abz-GIRRKRSVSHQ-EDDnp [compound 19]		0.9	0.42 µM and 0.39 µM	29.6 (30.3) s^−1	70547 (77100) (mM.s)^−1			
Abz-LDKR↓EAE-Q-EDDnp						353000		
Abz-RERRRKKR↓GLFG-Q-EDDnp [peptide 48]		79		12.3(2.6) s^−1	123000 (1555) (mM.s)^−1			
Abz-RKRSRRQVNTQ-EDDnp [peptide 1]		44		11.3 (8.4) s^−1	56300 (1291) (mM.s)^−1		5.46 and 5.67	
Abz-RRRKKR↓GLFG-Q-EDDnp [compound 31]			15.5 µM	5.0 s⁻¹	322 mM/s			
Abz-SGRSRRAIDLQ-EDDnp [peptide 10]		3.0		6.2 (4.3) s^−1	15923 (5328) (mM.s)^−1			
Abz-SRRHKR↓FAGV-Q-EDDnp (Abz-SRRHKRFAGVQ-EDDnp) [peptide 32]		60		2.4 (0.21) s^−1	33857 (559) (mM.s)^−1		5.27 and 5.42	
Abz-YKR↓EAD-Q-EDDnp						7.939e+06		
Ac-RVRR-{AMC} [compound 38, reference compound]		0.1		0.59 (0.98) s^−1	120 (1139) (mM.s)^−1			
GQRKKR↓ALDT [compound 40]		0.06		3.6 (3.9) s^−1	829 (14130) (mM.s)^−1			
HHRQRR↓SVSI [compound 37]		0.1		28.9 (39.5) s^−1	9031 (116088) (mM.s)^−1			
HKREKR↓QAKH [compound 39]		0.1		6.3 (6.9) s^−1	2354 (17734) (mM.s)^−1			
HNRTKR↓STDG [compound 23]		28	0.95 µM and 0.87 µM	7.8 (0.26) s^−1	8210 (289) (mM.s)^−1			
HRRDKR↓SVAL [compound 17]		0.6		12.7 (9.5) s^−1	23091 (36615) (mM.s)^−1			
HRREKR↓SVAL [compound 16]		0.7	0.2 µM and 0.22 µM	7.6 (12.2) s^−1	38300 (55636) (mM.s)^−1			
HRRQKR↓SVAL [compound 14]		1.2	0.37 µM and 0.28 µM	14.9 (9.2) s^−1	40270 (32431) (mM.s)^−1			
KIRRRR↓DVVD [compound 26]		8.9	0.05 µM and 0.1 µM	3.1 (0.60) s^−1	53448 (6000) (mM.s)^−1			
KKRKRR↓FLGF [compound 33]		4.2		1.1 (0.64) s^−1	2173 (512) (mM.s)^−1			
KRRQRR↓RPPQ [compound 21]								Slow Hydrolysis
LKRRRR↓DTQQ [compound 30]		0.6		6.7 (0.61) s^−1	1303 (2184) (mM.s)^−1			
LRRRRR↓DAGN [compound 25]		9.9	3.6 µM and 3.3 µM	12.3 (1.1) s^−1	3455 (348) (mM.s)^−1			

Compound	effect on the rate of hydrolysis of Abz-[…]-Q-EDDnp by furin [1]	R: relative kcat/Km values in presence vs. absence of MgCl2 [2]	Km [2]	kcat [2]	kcat/Km [2]	kcat/Km for hydrolysis by kex2 [3] [M⁻¹ s⁻¹]	pK1 of pH-profile of furin hydrolysis [4]	hydrolysis by furin (result in words, cell spans kcat, Km, kcat/Km and R) [2]
LTRQRR↓SLLP [compound 8]		1.3	0.9 µM and 0.64 µM	3.3 (1.8) s^−1	3510 (2708) (mM.s)^−1			
MMRHRR↓ELQR [compound 7]		1.7		10.3 (16.2) s^−1	23409 (13508) (mM.s)^−1			
NLRRRR↓DLVD [compound 28]		7.2		3.5 (2.0) s^−1	10606 (1470) (mM.s)^−1			
NTRSRR↓SVPV [compound 29]								Slow Hydrolysis
QIRAKR↓ELSK [compound 2]		6.9		6.7 (9.7) s^−1	5583 (808) (mM.s)^−1			
QSRRRR↓QTPP [compound 41]		0.05		3.4 (6.3) s^−1	1547 (31067) (mM.s)^−1			
RKRRKR↓ELET [compound 27]		8.5		4.3 (0.23) s^−1	1400 (164) (mM.s)^−1			
RNRQKR↓FVLS [compound 42]			0.59 µM	0.20 s⁻¹	337 mM/s			
RRRAKR↓SPKH [compound 35]		6.2		5.3 (8.7) s^−1	4383 (710) (mM.s)^−1			
RRRDKR↓SVAL [compound 15]		0.8	0.41 µM and 0.39 µM	12.2 (14.6) s^−1	29658 (37505) (mM.s)^−1			
RRRKKR↓GLSG [compound 45]		38		6.7 (2.4) s^−1	30500 (797) (mM.s)^−1			
RRRKKR↓SLFG [compound 46]		54		7.6 (1.0) s^−1	33043 (606) (mM.s)^−1			
RRRKKR↓SLSG [compound 47]		14		4.5(0.92) s^−1	18833 (1333) (mM.s)^−1			
SIRHKR↓EPSV [compound 20]		0.9	2.4 µM and 2.8 µM	1.6 (2.1) s^−1	646 (729) (mM.s)^−1			
SKRSRR↓SVSV [compound 13]		1.5	0.49 µM and 0.41 µM	18.3 (10.5) s^−1	37347(25362) (mM.s)^−1			
SRRKRR↓DVTP [compound 6]		3.2		9.9 (9.2) s^−1	66000 (20467) (mM.s)^−1			
SRRKRR↓SAST [compound 22]		38		11.1 (10.0) s^−1	76232 (1992) (mM.s)^−1			
SRRSRR↓SLTV [compound 12]				6.2 (4.3) s^−1	15923 (5328) (mM.s)^−1			
SSRHRR↓ALDT [compound 36]		0.3		7.1 (5.6) s^−1	1707 (6488) (mM.s)^−1			
THRTRR↓STSD [compound 24]		11	1.9 µM and 1.2 µM	8.1 (0.44) s^−1	4128 (370) (mM.s)^−1			
TRRFRR↓SITE [compound 34]		1.3	0.53 µM and 0.58 µM	19.8 (16.4) s^−1	37358 (28362) (mM.s)^−1			
VQREKR↓AVGI [compound 18]		3.2	2.1 µM and 2.8 µM	2.7 (1.2) s^−1	1290 (407) (mM.s)^−1			
VRRRRR↓YALS [compound 43]			3.14 µM	0.60 s⁻¹	193 mM/s			
VVRVRR↓ELLP [compound 5]		3.8		16.6 (12.2) s^−1	13071 (3466) (mM.s)^−1			
